# Results from patent US20060030586A1, “Method and health food for preventing and/or alleviating psychiatric disorder, and/or for effectuating sedation” (Education Center of Traditional Chinese Medicine Co., priority 2004, published 2006).
# Columns and labels:
# mice [1] = assay: Locomotor activity (ultromotivity) measurement, evaluation of sedative action; assay type: in vivo; conditions: for Significant difference test of ultromotivity: Tukey's method; for Ultromotivity (count) 60 minutes / Significant difference test of ultromotivity: 60 minutes
# Procedure: (§1) In the following Examples, all extracts and drugs used were dissolved in physiological saline before use for i.p. administration and the dose was 0.1 ml of physiological saline per 10 g of mouse body weight in either case. All extracts and drugs were suspended in physiological saline containing 1% carboxymethylcellulose before use for oral administration and the dose was 0.1 ml of 1% carboxymethylcellulose-containing physiological saline suspension per 10 g of mouse body weight in either case. Male ICR mice (Japan SLC) having a body weight of 25 to 30 g were used in the tests below unless otherwise stated, and were fed in advance at a room temperature of 23±1° C. and a relative humidity of 55±5% in the environment of a 12-hour-light and 12-hour-dark cycle at 7 and 19 for 3 to 5 days. The mice were allowed to have water and feed freely.
# Twenty five mice were grouped into five groups each having five mice, to which 5 mg/kg of N-methylcoclaurine hydrochloride (treatment group 1-1: i.p. administration), 50 mg/kg of neferine hydrochloride (treatment group 1-2: oral administration, and treatment group 1-3: i.p. administration), 50 mg/kg of liensinine hydrochloride (treatment group 1-4: oral administration), or physiological saline (negativity control group 1-1: i.p. administration) was administered. The ultromotivity of the mice was analyzed by using a locomotor activity monitoring system (NS-AS01, Neuroscience Inc.). The ultromotivity measurements were performed at an interval of 5 minutes for 60 minutes, and the ultromotivity was judged from the count at each measuring time.
# Similar tests were conducted by i.p. administration of 25 mg/kg of N-norarmepavine (treatment group 1-5, n=6), 25 mg/kg of O,O-dimethylcoclaurine (treatment group 1-6, n=5), 10 mg and 25 mg/kg of armepavine (respectively, treatment group 1-7, n=6, and treatment group 1-8, n=6), 10 mg and 25 mg/kg of O-methylarmepavine (respectively, treatment group 1-9, n=6, and treatment group 1-10, n=6), and physiological saline (negativity control group 1-2, n=5). The ultromotivity measurements were performed at an interval of five minutes for 60 minutes, and the ultromotivity was subjected to a significant difference test (Tukey's method) by using the counts at respective measuring times.
# (§2) Tests were performed by using mice administered intraperitoneally with 25 mg/kg of neferine hydrochloride (treatment group 7-1, n=6), 25 mg/kg of liensinine hydrochloride (treatment group 7-2, n=6), and physiological saline (negativity control group, n=6) as well as 5 mg/kg of diazepam (positive control group, n=6) and a rotarod equipment (Ugo Basile, Italy) and a locomotor activity monitoring system (NS-ASO1, Neuroscience Inc.). The rotarod test was performed by placing a mouse on a rod having a diameter of 4 cm rotating at a speed of 8 rpm 15 minutes after drug administration and observing whether the mouse can stay on the rod without falling for three minutes. The individuals that had fallen from the rotating rod in the period of 3 minutes were judged that they are with motor coordination disorder. […] In addition, the ultromotivity measurements were performed at an interval of five minutes for 60 minutes, and the ultromotivity results were subjected to a significant difference test (Tukey's method) by using the counts at respective measuring times.
# mice [2] = assay: Thiopental sleep-enhancing test; assay type: in vivo; conditions: 15 minutes before thiopental 60 mg/kg i.p.
# Procedure: as §1
# Actions on thiopental sleep by various compounds were evaluated. Thiopental dissolved in physiological saline was administered intraperitoneally into mice at a dose of 60 mg/kg. 50 mg/kg of neferine hydrochloride (treatment group 2-1, n=9), 50 mg/kg of isoliensinine hydrochloride (treatment group 2-2, n=9), 100 mg/kg of lien tzehsin 2 extract hydrochloride (treatment group 2-3, n=9), only physiological saline (negativity control group, n=6), or 1 mg/kg of diazepam (positive control group, n=9) was administered intraperitoneally into the mice 15 minutes before the thiopental administration. The time when the righting reflex of the mice disappeared after thiopental administration was designated as sleep-induction time, while total sleep time was calculated from the induction time and the time when the righting reflex was restored.
# mice [3] = assay: Rotarod test (muscle relaxation, motor coordination); assay type: in vivo; conditions: n=6, 8 rpm, 3 minutes, 15 minutes after administration
# Procedure: as §1, §2
# mice [4] = assay: Forced swimming test (Porsolt); assay type: in vivo; conditions: 100 mg/kg i.p., hydrochloride, 6-minute period
# Procedure: as §1
# Forced swimming tests were conducted according to the method of Porsolt et al. A mouse was placed in a cylindrical glass water tank of 10 cm in diameter and 25 cm in height (water temperature: 23° C.) filled with water to a depth of 10 cm and forced to swim therein. […] Each mouse was forced to swim 15 and 30 minutes after administration, and the immobile times during the 6-minute periods immediately after forced swimming were determined. […]
# [5] = Seibu et al., no specific data; cited from earlier work
# mice [6] = assay: Glass ball-covering behavior test; assay type: in vivo; conditions: hydrochloride, 20 balls
# Procedure: as §1
# In evaluating glass ball-covering behavior, wood chip for breeding (beta chip) (Oriental Yeast Co., Ltd.) was placed in the transparent cage described in Example 3 to a depth of 5 cm, on which 20 glass balls (diameter: 1.5 cm) were placed evenly.
# Twenty-one mice were grouped into three groups of seven mice, to which 25 mg/kg of neferine hydrochloride (treatment group 6-1), 50 mg/kg of the same (treatment group 6-2), and physiological saline (negativity control group) were administered intraperitoneally, respectively. A mouse was placed in the case 15 minutes after administration, and the number of the glass balls not covered with the wood chip was counted by visual observation at an interval of 10 minutes. The number of balls having ⅔ of the surface thereof being embedded in the wood chip was counted as the criteria for judgment.
# mice [7] = assay: Elevated plus-maze test; assay type: in vivo; conditions: 100 mg/kg i.p., hydrochloride, 30 minutes after administration, 5 minutes
# Procedure: In the following Examples, all extracts and drugs used were dissolved in physiological saline before use for i.p. administration and the dose was 0.1 ml of physiological saline per 10 g of mouse body weight in either case. All extracts and drugs were suspended in physiological saline containing 1% carboxymethylcellulose before use for oral administration and the dose was 0.1 ml of 1% carboxymethylcellulose-containing physiological saline suspension per 10 g of mouse body weight in either case. […]
# An elevated plus-maze (Neuroscience Inc.) consisting of 2 arms without high walls and 2 arms enclosed by high walls, which were crossing perpendicular to each other, was used for evaluation. A mouse was placed on the platform at the center in a position facing toward an arm enclosed by high walls, and the number of times the mouse entered into both arms and the period of the mouse staying in the arms without walls were determined during a period of 5 minutes. The results were evaluated by the ratios of the number of the mouse entering into the arms with walls with respect to the total number of entering into both arms (%) and by the period of the mouse staying in the arms without walls (%). […]
# mice [8] = assay: Suppression of methamphetamine-enhanced ultromotivity; assay type: in vivo; conditions: for Ultromotivity (count): hydrochloride, methamphetamine 1 mg/kg 15 minutes later, 60 minutes
# Procedure: as §1
# The effects of neferine on suppression of the enhancement of ultromotivity by methamphetamine were evaluated.
# Fifteen mice were grouped into three groups of five mice, to which 50 mg/kg of neferine hydrochloride (treatment group 3-1), 100 mg/kg of the same (treatment group 3-2), and only physiological saline (negativity control group) were administered respectively intraperitoneally. Methamphetamine (1 mg/kg) was administered 15 minutes after the administration. After administration of methamphetamine, each of the mice was placed in a transparent polycarbonate cage (22.5 cm×33.8 cm×14.0 cm), where the ultromotivity of the mouse was analyzed for 60 minutes by using a locomotor activity analyzer (NS-AS01, Neuroscience Inc.).
# mice [9] = conditions: Ito et al.; cited from earlier work
compound,measurement,setting,value
COc1cc2c(cc1O)[C@@H](Cc1ccc(O)cc1)N(C)CC2 [N-methylcoclaurine],Sedative activity compared with neferine and liensinine (in words),mice [1]; 5 mg/kg i.p. versus 50 mg/kg,extremely higher activity
same,Ultromotivity (count) 30 minutes,"mice [1]; 5 mg/kg i.p., hydrochloride",250 count
same,Ultromotivity (count) 60 minutes,"mice [1]; 5 mg/kg i.p., hydrochloride",250 count
"CN1C(=O)CN=C(c2ccccc2)c2cc(Cl)ccc21 [diazepam, reference compound]",Total sleep time,mice [2]; 1 mg/kg i.p.,130 min
same,Number of individuals fallen,mice [3]; 5 mg/kg i.p.,5
same,Significant difference test of ultromotivity,mice [1]; 5 mg/kg i.p.,P < 0.005
COc1ccc(C[C@@H]2c3cc(Oc4cc(C[C@@H]5c6cc(O)c(OC)cc6CCN5C)ccc4O)c(OC)cc3CCN2C)cc1 [isoliensinine],Total sleep time,"mice [2]; 50 mg/kg i.p., hydrochloride",120 min
COc1cc2c(cc1OC)[C@@H](Cc1ccc(O)c(Oc3cc4c(cc3OC)CCN(C)[C@@H]4Cc3ccc(O)cc3)c1)N(C)CC2 [liensinine],Number of individuals fallen,"mice [3]; 25 mg/kg i.p., hydrochloride",0
same,Significant difference test of ultromotivity,"mice [1]; 25 mg/kg i.p., hydrochloride",In declining
same,Ultromotivity (count) 30 minutes,"mice [1]; 50 mg/kg oral, hydrochloride",600 count
same,Ultromotivity (count) 60 minutes,"mice [1]; 50 mg/kg oral, hydrochloride",800 count
COc1ccc(C[C@@H]2c3cc(Oc4cc(C[C@@H]5c6cc(OC)c(OC)cc6CCN5C)ccc4O)c(OC)cc3CCN2C)cc1 [neferine],Immobile time (sec) After 15 minutes,mice [4]; 15 minutes after administration,165 s
same,Immobile time (sec) After 30 minutes,mice [4]; 30 minutes after administration,170 s
same,Antihypertensive action (in words),[5],exhibited an antihypertensive action
same,Number of glass balls not covered with wood chip After 10 minutes,mice [6]; 25 mg/kg i.p.,4
same,Number of glass balls not covered with wood chip After 20 minutes,mice [6]; 25 mg/kg i.p.,7
same,Number of glass balls not covered with wood chip After 30 minutes,mice [6]; 25 mg/kg i.p.,10
same,Number of glass balls not covered with wood chip After 10 minutes,mice [6]; 50 mg/kg i.p.,3
same,Number of glass balls not covered with wood chip After 20 minutes,mice [6]; 50 mg/kg i.p.,6
same,Number of glass balls not covered with wood chip After 30 minutes,mice [6]; 50 mg/kg i.p.,9
same,Staying period (%),mice [7]; arms without walls,33%
same,Invasion times (%),mice [7]; ratio to total entries,70%
same,Total sleep time,"mice [2]; 50 mg/kg i.p., hydrochloride",100 min
same,Ultromotivity (count),mice [8]; 50 mg/kg i.p.,2600 count
same,Ultromotivity (count),mice [8]; 100 mg/kg i.p.,1800 count
same,Action on ultromotivity enhancement by methamphetamine (in words),mice [8]; 50 and 100 mg/kg i.p.,obvious action suppressing the ultromotivity enhancement by methamphetamine
same,Number of individuals fallen,"mice [3]; 25 mg/kg i.p., hydrochloride",0
same,Significant difference test of ultromotivity,"mice [1]; 25 mg/kg i.p., hydrochloride",P < 0.01
same,Ultromotivity (count) 30 minutes,"mice [1]; 50 mg/kg i.p., hydrochloride",500 count
same,Ultromotivity (count) 60 minutes,"mice [1]; 50 mg/kg i.p., hydrochloride",760 count
same,Ultromotivity (count) 30 minutes,"mice [1]; 50 mg/kg oral, hydrochloride",500 count
same,Ultromotivity (count) 60 minutes,"mice [1]; 50 mg/kg oral, hydrochloride",750 count
same,Locomotor activity-inhibiting action (in words),mice [9],exhibited a locomotor activity-inhibiting action
